Test results from patent US20040115160A1, “Quaternary ammonium esters for disinfection and preservation” (priority 2002, published 2004).

What was measured:
[1] = test system: cells seeded in Millicell HA 13 mm inserts; test: Sodium fluorescein permeability assay; format: cell-based; settings: 20 min
Procedure: A 0.5 ml cell suspension containing 2×10^5 cells was seeded in Millicell HA 13 mm inserts (Millipore, Bedford, Mass.). The inserts were transferred into 24 well plates containing 0.5 ml of minimum essential medium (MEM) (BioWhittaker, Walkersville, Md.) per well. The plates were then incubated at 37° C. with 5 percent carbon dioxide for six days. Fresh media was added to the wells on days 2 through 6. On day 6 the inserts were used for the permeability assay.
Each insert was gently rinsed three times with 1 ml of Hanks' balanced salt solution (HBSS) using a 10 ml syringe, without a needle. An amount of 0.5 ml of test solution was added to separate inserts that had been placed in a fresh 24 well plate. Triplicate inserts were used for each test solution. The inserts were incubated in a 100 percent humidified chamber at 37 degrees Celsius for twenty minutes. Each series of triplicate samples was handled sequentially to allow exact timing of the treatment and subsequent steps. After incubation, each insert was individually rinsed five times with 1 ml HBSS using a 10 ml syringe without a needle, and then placed in a fresh 24 well plate containing 0.5 ml HBSS in each well. To each insert was added 0.5 ml of sodium fluorescein (3 mg/100 ml in HBSS). The inserts were incubated at room temperature for twenty minutes, removed from the wells, and the amount of sodium fluorescein was measured using a fluorometer at […]. Triplicate negative controls (HBSS solution) and positive controls consisting of sodium dodecyl sulphate (SDS) in water were included during these evaluations. Sodium fluorescein permeability assay results for composition numbers 1 and 14 are summarized below in Table 4.

[2] = test system: Acanthamoeba polyphaga strain Ros cysts; test: Acanthamoeba contact lens disinfectant challenge test assay; format: cell-based; settings: 25 ppm
Procedure: Acanthamoeba polyphaga strain Ros were used in this study. Trophozoites were maintained at 30° C. in an axenic broth medium composed of 20.0 g Biosate™ (Becton Dickinson, United Kingdom), 5.0 g glucose, 0.3 g KH2PO4, 10 μg vitamin B12 and 15.0 mg L-methionine per litre of deionized water. The pH was adjusted to 6.5-6.6 with 1 M NaOH before autoclaving at 121° C. for 12 minutes. Penicillin and streptomycin were added to a final concentration of 150 μ/ml before use.
Cysts were prepared from trophozoite cultures using the axenic medium supplemented with 50 mM MgCl2. The encystment medium was inoculated with approximately 2×10^5 /ml trophoxoites for culture at 30° C. in a shaking incubator (100 rpm) for 7 days. Cells were enumerated using haemocytometer counting.
The challenge test assay protocol, as described by R. Hughes and S. Kilvington, Comparison of Hydrogen Peroxide Contact Lens Disinfection Systems and Solutions Against Acanthamoeba Polyphaga, Antimicrob. Agents Chemother. 45: 2038-2043, (2001), is set forth in detail below. The number of surviving organisms was calculated as described by L. J. Reed and H. Muench, A Simple Method for Estimating Fifty Percent Endpoints, Am. J. Hyg., 27: 493-497, (1938). Statistical analysis of the data was by One Way Analysis Of Variance (ANOVA).
1. Fifty ml polypropylene centrifuge tubes were aged overnight with 15 ml of disinfectant solution, i.e., ReNue™ 02 (Bausch & Lomb, Rochester, N.Y.). The tubes were then drained, the disinfectant solution discarded, and refilled with 10 ml of fresh disinfectant solution for testing.
2. To a flat-bottomed, 96 well microtitre plate having 8 columns labelled “A” through “H”, 180 μl of neutralizer, i.e., 0.1 percent Tween™ 80 (Baker, Inc., Phillipsburg, N.J.) in one-quarter strength Ringer's solution for biguanide based disinfectants, was added to the outer wells of columns A and H. 180 μl of one-quarter strength Ringer's solution was then added to the remaining inner wells of columns B through G.
3. Amoebae were adjusted to 5×10^6 /ml in one-quarter strength Ringer's solution and 100 μl (5×10^5) was added to 10 ml of disinfectant (5×10^4 /ml) or saline control.
4. At time intervals of 0, 1, 2, 3, 4, 6 and 24 hours:
i. vortexed tubes 5 seconds;
ii. in quadruplet, removed 20 μl (1000 cells) and added to neutralizer wells for the given time-point (i.e., column A, rows 9-12) and made serial 10-fold dilutions across the microtitre plate (i.e., to column D, rows 9-12); and
iii. repeated for each time point.
5. One drop of live E. coli from 3 ml pastette (25 μl of approximately 5×10^7 bacteria/ml) was then added to each well.
6. The plate was then incubated at 32° C. for up to 7 days.
7. The plate was inspected daily for 7 days for the presence of amoebal growth, either trophozoite replication or excystment and trophozoite replication, in the wells.
8. The number of surviving organisms was then estimated at each time interval by Reed and Muench computation and set forth below in Table 3.

## CCCCCCCCCCCCCC(=O)OCCC[N+](C)(C)Cc1ccccc1 [Compound 1, N-myristoyloxypropyl-N-benzyl-N,N-dimethylammonium chloride]
[1]; 5 ppm
  Sodium fluorescein permeability, Fluorescence Units: 71 Fluorescence Units
[1]; 10 ppm
  Sodium fluorescein permeability, Fluorescence Units: 71 Fluorescence Units
[1]; 15 ppm
  Sodium fluorescein permeability, Fluorescence Units: 77 Fluorescence Units
[1]; 25 ppm
  Sodium fluorescein permeability, Fluorescence Units: 76 Fluorescence Units
[1]; 100 ppm
  Sodium fluorescein permeability, Fluorescence Units: 554 Fluorescence Units
[2]; 1 Hr.
  Amoebae Log Kill, Cysts: 3.30 Log
[2]; 4 Hr.
  Amoebae Log Kill, Cysts: 3.30 Log
